# Laboratory results as given in PubChem BioAssay (NCI).
# “And” between values parts separate entries of the source, which are not always exact repeats. Equal values may be shown once.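 Each compound was tested at five concentrations against cells in 96-well plates for 48 hours. GI50 is the concentration that inhibits growth by half. TGI denotes the concentration required for complete inhibition of growth.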
# Assays:
# Assay in all cases: DTP human tumour cell line panel, 48 h
# HOP-92 NSCLC = test system: HOP-92 NSCLC
# HS 578T breast = test system: HS 578T breast
# M14 melanoma = test system: M14 melanoma
# HCC-2998 colon = test system: HCC-2998 colon
# M19-MEL melanoma = test system: M19-MEL melanoma
# MDA-MB-435 = test system: MDA-MB-435
# NCI-H226 lung = test system: NCI-H226 lung
# OVCAR-3 ovarian = test system: OVCAR-3 ovarian
# SNB-78 CNS = test system: SNB-78 CNS
# XF 498 CNS = test system: XF 498 CNS
# DMS 273 small cell lung = test system: DMS 273 small cell lung
# SK-OV-3 ovarian = test system: SK-OV-3 ovarian
SMILES,GI50 (HOP-92 NSCLC),TGI (HOP-92 NSCLC),GI50 (HS 578T breast),TGI (HS 578T breast),GI50 (M14 melanoma),TGI (M14 melanoma),TGI (HCC-2998 colon),TGI (M19-MEL melanoma),GI50 (MDA-MB-435),TGI (MDA-MB-435),GI50 (NCI-H226 lung),TGI (NCI-H226 lung),GI50 (OVCAR-3 ovarian),TGI (OVCAR-3 ovarian),TGI (SNB-78 CNS),TGI (XF 498 CNS),TGI (DMS 273 small cell lung),TGI (SK-OV-3 ovarian)
Cn1c(=O)c2[nH]c(SC/C(=N/O)c3ccc(Br)cc3)nc2n(C)c1=O,2.02 µM,4.56 µM,3.05 µM,7.9 µM,45.5 µM,> 100 µM,–,–,–,–,–,–,–,–,–,–,–,–
CC1OC(O[C@@H]2C=C3CC[C@@H]4[C@H](CC[C@]5(C)[C@@H](c6ccc(=O)oc6)CC[C@]45O)[C@@]3(C)CC2)C(O)C(OC2OC(CO)C(O)C(O)C2O)C1O (stereo partly specified),0.000166 µM,–,–,–,0.00096 µM,0.0148 µM,0.0422 µM,0.039 µM,0.000454 µM,0.02 µM,0.0101 µM,0.0549 µM and 0.0732 µM,0.000162 µM,0.0253 µM,0.033 µM,0.0276 µM,–,–
CC(=O)OCC1OC(N=[N+]=[N-])C(OC(C)=O)C(OC(C)=O)C1OC1OC(COC(C)=O)C(OC(C)=O)C(OC(C)=O)C1OC(C)=O (stereo unspecified),–,–,–,–,–,> 100 µM,> 100 µM,> 100 µM,–,–,–,–,–,> 100 µM,> 100 µM,> 100 µM,> 100 µM,> 100 µM
O=c1[nH]c(=O)n(C2CC(O)C(CO)O2)cc1Br (stereo unspecified),–,> 100 µM,–,> 100 µM,–,> 100 µM,> 100 µM,–,–,> 100 µM,–,> 100 µM,–,> 100 µM,–,–,–,> 100 µM
Cc1cc(O)c2c(c1)C(C1c3cccc(O)c3C(=O)c3c(O)cc(C)cc31)c1cccc(O)c1C2=O (stereo unspecified),–,0.706 µM,–,33.3 µM,–,7.49 µM,16.6 µM,–,–,10.7 µM,–,2.24 µM,–,0.739 µM,–,–,–,1.69 µM
C=C1CCOC2(C(O)C(C)(O)CO)NC(=O)C1(O)NC2=O (stereo unspecified),–,> 100 µM,–,> 100 µM,–,> 100 µM,> 100 µM,–,–,> 100 µM,–,> 100 µM,–,> 100 µM,–,–,–,> 100 µM
